Results reported in PubChem BioAssay AID1963975 (Molecular Pharmacology Branch, DTP, NCI, 2024).

Test system: 624824-186-R-J2-PDC multicell spheroids, viability
Experiment: Anticancer human tumor 624824-186-R-J2-PDC patient-derived colon adenocarcinoma cell line growth inhibition [PI3K]
Conditions: for viability, T/C: stronger effect = lower value
In short: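 Spheroid viability read-out. Co-cultures contained the tumor line plus HUVEC and human MSCs. Each agent was paired with a PI3K inhibitor (inavolisib, alpelisib, duvelisib, copanlisib) across half-log dilutions starting at clinical Cmax, or at 10 microM when Cmax was unknown.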

[1] = curve of first compound, second compound 0.0316 µM
[2] = curve of first compound, second compound 0.1 µM
[3] = curve of first compound, second compound 0.316 µM
[4] = curve of first compound, second compound 1 µM
[5] = second compound 0.0316 µM, first compound 0.0316 µM
[6] = second compound 0.0316 µM, first compound 0.1 µM
[7] = second compound 0.0316 µM, first compound 0.316 µM
[8] = second compound 0.0316 µM, first compound 1 µM
[9] = second compound 0.0316 µM, first compound 3.16 µM
[10] = second compound 0.0316 µM, first compound 10 µM
[11] = second compound 0.1 µM, first compound 0.0316 µM
[12] = second compound 0.1 µM, first compound 0.1 µM
[13] = second compound 0.1 µM, first compound 0.316 µM
[14] = second compound 0.1 µM, first compound 1 µM
[15] = second compound 0.1 µM, first compound 3.16 µM
[16] = second compound 0.1 µM, first compound 10 µM
[17] = second compound 0.316 µM, first compound 0.0316 µM
[18] = second compound 0.316 µM, first compound 0.1 µM
[19] = second compound 0.316 µM, first compound 0.316 µM
[20] = second compound 0.316 µM, first compound 1 µM
[21] = second compound 0.316 µM, first compound 3.16 µM
[22] = second compound 0.316 µM, first compound 10 µM
[23] = second compound 1 µM, first compound 0.0316 µM
[24] = second compound 1 µM, first compound 0.1 µM
[25] = second compound 1 µM, first compound 0.316 µM
[26] = second compound 1 µM, first compound 1 µM
[27] = second compound 1 µM, first compound 3.16 µM
[28] = second compound 1 µM, first compound 10 µM
[29] = curve of first compound, second compound 3.16 µM
[30] = curve of first compound, second compound 10 µM
[31] = second compound 3.16 µM, first compound 0.0316 µM
[32] = second compound 3.16 µM, first compound 0.1 µM
[33] = second compound 10 µM, first compound 0.0316 µM
[34] = second compound 10 µM, first compound 0.1 µM
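Further: spheroids exposed to agents for 7 days before viability read.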
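Wherever viability, T/C is given: 100% = DMSO vehicle treated spheroids.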

With `C=CC(=O)N1CCN(c2nc(=O)n(-c3c(C)ccnc3C(C)C)c3nc(-c4c(O)cccc4F)c(F)cc23)C(C)C1` (stereo unspecified) + COc1c(OCCCN2CCOCC2)ccc2c3n(c(=NC(=O)c4cnc(N)nc4)nc12)CCN3 the IC50 (curve of first compound, second compound 0.00316 µM) was > 10 µM, the IC50 (curve of first compound, second compound 0.01 µM) was > 10 µM and the IC50 [1] was > 10 µM. For the same compound, the IC50 [2] was > 10 µM, the IC50 [3] was > 10 µM and the IC50 [4] was > 10 µM. It also gave a viability, T/C (second compound 0.00316 µM, first compound 0.0316 µM) of 96.5%, a viability, T/C (second compound 0.00316 µM, first compound 0.1 µM) of 109% and a viability, T/C (second compound 0.00316 µM, first compound 0.316 µM) of 95.6%. It also gave a viability, T/C (second compound 0.00316 µM, first compound 1 µM) of 77.9%, a viability, T/C (second compound 0.00316 µM, first compound 3.16 µM) of 88.7% and a viability, T/C (second compound 0.00316 µM, first compound 10 µM) of 80.8%. It also gave a viability, T/C (second compound 0.01 µM, first compound 0.0316 µM) of 102%, a viability, T/C (second compound 0.01 µM, first compound 0.1 µM) of 98.4% and a viability, T/C (second compound 0.01 µM, first compound 0.316 µM) of 101%. It also gave a viability, T/C (second compound 0.01 µM, first compound 1 µM) of 75.3%, a viability, T/C (second compound 0.01 µM, first compound 3.16 µM) of 93% and a viability, T/C (second compound 0.01 µM, first compound 10 µM) of 88.4%. For the same compound, the viability, T/C [5] was 88.4%, the viability, T/C [6] was 86.5% and the viability, T/C [7] was 97.3%. It also gave a viability, T/C [8] of 75.1%, a viability, T/C [9] of 89.5% and a viability, T/C [10] of 81.7%. It also gave a viability, T/C [11] of 80.4%, a viability, T/C [12] of 61.1% and a viability, T/C [13] of 80.1%. It also gave a viability, T/C [14] of 67.9%, a viability, T/C [15] of 69% and a viability, T/C [16] of 69%. For the same compound, the viability, T/C [17] was 62.6%, the viability, T/C [18] was 59.3% and the viability, T/C [19] was 59.5%. The viability, T/C [20] was 61.6%, the viability, T/C [21] was 69.8% and the viability, T/C [22] was 61%. For the same compound, the viability, T/C [23] was 59.1%, the viability, T/C [24] was 53% and the viability, T/C [25] was 65.5%. It also gave a viability, T/C [26] of 58.1%, a viability, T/C [27] of 64.5% and a viability, T/C [28] of 60.5%.
In the case of `Cn1nccc1Nc1nccc(-c2ccn(C(CO)c3ccc(Cl)c(F)c3)c(=O)c2)n1` (stereo unspecified), the viability, T/C (compound 0.0316 µM) is reported as 88.9% [middle of 4 runs], the viability, T/C (compound 0.316 µM) is reported as 72.8% [middle of 4 runs] and the viability, T/C (compound 1 µM) is reported as 94% [middle of 4 runs]. The viability, T/C (compound 3.16 µM) was 91.2% [middle of 4 runs] and the IC50 (curve of compound) was > 10 µM.
With `Cn1ncc(Cl)c1-c1cc(C(=O)NC(CN)Cc2cccc(F)c2)sc1Cl` (stereo unspecified) + CC(Nc1ncnc2nc[nH]c12)c1cc2cccc(Cl)c2c(=O)n1-c1ccccc1 the IC50 [1] was > 10 µM, the IC50 [2] was 9.49 µM and the IC50 [3] was > 10 µM. For the same compound, the IC50 [4] was 7.07 µM, the IC50 [29] was > 10 µM and the IC50 [30] was 9.26 µM. For the same compound, the viability, T/C [5] was 73.9%, the viability, T/C [6] was 85.7% and the viability, T/C [7] was 71.5%. For the same compound, the viability, T/C [8] was 68.3%, the viability, T/C [9] was 57.2% and the viability, T/C [10] was 55.1%. It also gave a viability, T/C [11] of 80.1%, a viability, T/C [12] of 67.8% and a viability, T/C [13] of 80.7%. For the same compound, the viability, T/C [14] was 73%, the viability, T/C [15] was 67.6% and the viability, T/C [16] was 49.2%. It also gave a viability, T/C [17] of 95.3%, a viability, T/C [18] of 86.4% and a viability, T/C [19] of 67%. It also gave a viability, T/C [20] of 69%, a viability, T/C [21] of 63.6% and a viability, T/C [22] of 47.8%. The viability, T/C [23] was 82.1%, the viability, T/C [24] was 95.8% and the viability, T/C [25] was 71%. For the same compound, the viability, T/C [26] was 78.2%, the viability, T/C [27] was 62.3% and the viability, T/C [28] was 44.2%. It also gave a viability, T/C [31] of 79.9%, a viability, T/C [32] of 91.6% and a viability, T/C (second compound 3.16 µM, first compound 0.316 µM) of 78.8%. It also gave a viability, T/C (second compound 3.16 µM, first compound 1 µM) of 70.2%, a viability, T/C (second compound 3.16 µM, first compound 3.16 µM) of 69.8% and a viability, T/C (second compound 3.16 µM, first compound 10 µM) of 50.6%. The viability, T/C [33] was 104%, the viability, T/C [34] was 73.2% and the viability, T/C (second compound 10 µM, first compound 0.316 µM) was 89.7%. The viability, T/C (second compound 10 µM, first compound 1 µM) was 68.7%, the viability, T/C (second compound 10 µM, first compound 3.16 µM) was 64.1% and the viability, T/C (second compound 10 µM, first compound 10 µM) was 47.1%.
With `CCN1CCN(Cc2ccc(Nc3ncc(F)c(-c4cc(F)c5nc(C)n(C(C)C)c5c4)n3)nc2)CC1` the viability, T/C (compound 0.0316 µM) was 86.1% [middle of 4 runs], the viability, T/C (compound 0.1 µM) was 93.7% [middle of 4 runs] and the viability, T/C (compound 0.316 µM) was 93.5% [middle of 4 runs]. For the same compound, the viability, T/C (compound 1 µM) was 102% [middle of 4 runs] and the IC50 (curve of compound) was > 1 µM.
For `CC(C)n1nc(-c2ccc3oc(N)nc3c2)c2c(N)ncnc21` + CC(Nc1ncnc2nc[nH]c12)c1cc2cccc(Cl)c2c(=O)n1-c1ccccc1, the IC50 [1] was > 0.1 µM, the IC50 [2] was > 0.1 µM and the IC50 [3] was > 0.1 µM. The IC50 [4] was > 0.1 µM, the IC50 [29] was > 0.1 µM and the IC50 [30] was > 0.1 µM. It also gave a viability, T/C (second compound 0.0316 µM, first compound 0.000316 µM) of 108%, a viability, T/C (second compound 0.0316 µM, first compound 0.001 µM) of 113% and a viability, T/C (second compound 0.0316 µM, first compound 0.00316 µM) of 83%. The viability, T/C (second compound 0.0316 µM, first compound 0.01 µM) was 76.7%, the viability, T/C [5] was 75.7% and the viability, T/C [6] was 77.9%. The viability, T/C (second compound 0.1 µM, first compound 0.000316 µM) was 94.3%, the viability, T/C (second compound 0.1 µM, first compound 0.001 µM) was 81.9% and the viability, T/C (second compound 0.1 µM, first compound 0.00316 µM) was 105%. The viability, T/C (second compound 0.1 µM, first compound 0.01 µM) was 85.8%, the viability, T/C [11] was 81.5% and the viability, T/C [12] was 75.2%. It also gave a viability, T/C (second compound 0.316 µM, first compound 0.000316 µM) of 87.5%, a viability, T/C (second compound 0.316 µM, first compound 0.001 µM) of 77.3% and a viability, T/C (second compound 0.316 µM, first compound 0.00316 µM) of 73.6%. It also gave a viability, T/C (second compound 0.316 µM, first compound 0.01 µM) of 83.3%, a viability, T/C [17] of 86.8% and a viability, T/C [18] of 75.8%. It also gave a viability, T/C (second compound 1 µM, first compound 0.000316 µM) of 93.2%, a viability, T/C (second compound 1 µM, first compound 0.001 µM) of 99% and a viability, T/C (second compound 1 µM, first compound 0.00316 µM) of 91.6%. The viability, T/C (second compound 1 µM, first compound 0.01 µM) was 79.2%, the viability, T/C [23] was 84.8% and the viability, T/C [24] was 90.6%. It also gave a viability, T/C (second compound 3.16 µM, first compound 0.000316 µM) of 101%, a viability, T/C (second compound 3.16 µM, first compound 0.001 µM) of 90.5% and a viability, T/C (second compound 3.16 µM, first compound 0.00316 µM) of 82.3%. It also gave a viability, T/C (second compound 3.16 µM, first compound 0.01 µM) of 90.5%, a viability, T/C [31] of 87.7% and a viability, T/C [32] of 78.2%. For the same compound, the viability, T/C (second compound 10 µM, first compound 0.000316 µM) was 109%, the viability, T/C (second compound 10 µM, first compound 0.001 µM) was 96.7% and the viability, T/C (second compound 10 µM, first compound 0.00316 µM) was 82.7%. It also gave a viability, T/C (second compound 10 µM, first compound 0.01 µM) of 95.5%, a viability, T/C [33] of 81.2% and a viability, T/C [34] of 78.6%.
